Measured values as given in the NIST ThermoML archive (doi:10.1021/je300610y).
± gives the expanded uncertainty stated by the source.

Columns and labels:
[1] = Crystal; for vapor or sublimation pressure: Transpiration method; for Normal melting temperature: DTA
[2] = Molar enthalpy of transition or fusion; conditions: Crystal; DSC

Row | Compound | vapor or sublimation pressure ([1]; 365.15 K) [kPa] | vapor or sublimation pressure ([1]; 366.15 K) [kPa] | vapor or sublimation pressure ([1]; 369.15 K) [kPa] | vapor or sublimation pressure ([1]; 375.15 K) [kPa] | vapor or sublimation pressure ([1]; 376.15 K) [kPa] | vapor or sublimation pressure ([1]; 385.15 K) [kPa] | vapor or sublimation pressure ([1]; 386.15 K) [kPa] | vapor or sublimation pressure ([1]; 388.15 K) [kPa] | vapor or sublimation pressure ([1]; 390.15 K) [kPa] | vapor or sublimation pressure ([1]; 393.15 K) [kPa] | Normal melting temperature [1] [°C] | Molar enthalpy of transition or fusion [2] [kJ/mol] | vapor or sublimation pressure ([1]; 387.15 K) [kPa] | vapor or sublimation pressure ([1]; 389.15 K) [kPa] | vapor or sublimation pressure ([1]; 391.15 K) [kPa] | vapor or sublimation pressure ([1]; 395.15 K) [kPa] | vapor or sublimation pressure ([1]; 397.15 K) [kPa] | vapor or sublimation pressure ([1]; 399.15 K) [kPa] | vapor or sublimation pressure ([1]; 384.15 K) [kPa] | vapor or sublimation pressure ([1]; 380.15 K) [kPa] | other results
1 | CC(C)c1ccc(NC2=NCCC3(CCCCC3)S2)cc1 | 1.98e-05 ± 2.1e-06 | 2.34e-05 ± 2.5e-06 | 3.21e-05 ± 3.4e-06 | 5.94e-05 ± 6.3e-06 | 7.14e-05 ± 7.6e-06 | 0.0001533 ± 1.6e-05 | 0.0001933 ± 2.1e-05 | 0.0001988 ± 2.1e-05 | 0.0002603 ± 2.8e-05 | 0.0003364 ± 3.6e-05 | 139.6 ± 0.5 | 29.2 ± 1.2 | – | – | – | – | – | – | – | – | vapor or sublimation pressure ([1]; 371.15 K): 3.7e-05 ± 4e-06 kPa; vapor or sublimation pressure ([1]; 373.15 K): 4.74e-05 ± 5.1e-06 kPa; vapor or sublimation pressure ([1]; 379.15 K): 8.3e-05 ± 8.8e-06 kPa; vapor or sublimation pressure ([1]; 381.15 K): 0.0001048 ± 1.1e-05 kPa; vapor or sublimation pressure ([1]; 383.15 K): 0.0001249 ± 1.3e-05 kPa
2 | Cc1ccc(NC2=NCCC3(CCCCC3)S2)cc1Cl | – | – | – | – | – | 7.9e-06 ± 9e-07 | 8.8e-06 ± 1e-06 | 1.22e-05 ± 1.3e-06 | – | 1.79e-05 ± 1.9e-06 | 149.2 ± 0.5 | 33.2 ± 1.2 | 1.13e-05 ± 1.2e-06 | 1.29e-05 ± 1.4e-06 | 1.59e-05 ± 1.7e-06 | 2.05e-05 ± 2.2e-06 | 2.95e-05 ± 3.2e-06 | 3.31e-05 ± 3.5e-06 | – | – | vapor or sublimation pressure ([1]; 396.15 K): 2.29e-05 ± 2.5e-06 kPa; vapor or sublimation pressure ([1]; 401.15 K): 3.4e-05 ± 3.6e-06 kPa; vapor or sublimation pressure ([1]; 402.15 K): 3.75e-05 ± 4e-06 kPa; vapor or sublimation pressure ([1]; 404.15 K): 4.55e-05 ± 4.9e-06 kPa; vapor or sublimation pressure ([1]; 405.7 K): 5.09e-05 ± 5.4e-06 kPa; vapor or sublimation pressure ([1]; 406.4 K): 5.34e-05 ± 5.7e-06 kPa; vapor or sublimation pressure ([1]; 407.3 K): 6.09e-05 ± 6.5e-06 kPa
3 | FC(F)(F)c1ccc(NC2=NCCC3(CCCCC3)S2)cc1 | – | – | – | – | – | 5.32e-05 ± 5.7e-06 | 5.53e-05 ± 5.9e-06 | – | 8.5e-05 ± 9e-06 | 0.0001076 ± 1.1e-05 | 149.7 ± 0.5 | 32.9 ± 1.2 | 6.2e-05 ± 6.6e-06 | 7.35e-05 ± 7.8e-06 | – | 0.0001376 ± 1.5e-05 | 0.0001497 ± 1.6e-05 | 0.0002215 ± 2.3e-05 | 4.95e-05 ± 5.3e-06 | – | vapor or sublimation pressure ([1]; 392.15 K): 9.41e-05 ± 1e-05 kPa; vapor or sublimation pressure ([1]; 394.15 K): 0.0001185 ± 1.3e-05 kPa; vapor or sublimation pressure ([1]; 398.15 K): 0.0001884 ± 2e-05 kPa; vapor or sublimation pressure ([1]; 401.15 K): 0.0002241 ± 2.4e-05 kPa; vapor or sublimation pressure ([1]; 402.15 K): 0.0002762 ± 2.9e-05 kPa; vapor or sublimation pressure ([1]; 403.15 K): 0.0002858 ± 3e-05 kPa
4 | Brc1ccc(NC2=NCCC3(CCCCC3)S2)cc1 [N-(4-bromophenyl)-1-thia-3-azaspiro[5.5]undec-2-en-2-amine] | – | – | – | 7.6e-06 ± 8e-07 | – | 1.92e-05 ± 2.1e-06 | – | 3.2e-05 ± 3.4e-06 | – | 5.5e-05 ± 5.9e-06 | 175.2 ± 0.5 | 44.3 ± 1.3 | – | – | 4.17e-05 ± 4.5e-06 | 6.74e-05 ± 7.2e-06 | 7.99e-05 ± 8.5e-06 | 9.5e-05 ± 1e-05 | – | 1.35e-05 ± 1.5e-06 | vapor or sublimation pressure ([1]; 374.15 K): 5.7e-06 ± 6e-07 kPa; vapor or sublimation pressure ([1]; 378.15 K): 1.05e-05 ± 1.1e-06 kPa; vapor or sublimation pressure ([1]; 401.15 K): 0.0001235 ± 1.3e-05 kPa; vapor or sublimation pressure ([1]; 403.15 K): 0.0001454 ± 1.6e-05 kPa; vapor or sublimation pressure ([1]; 405.15 K): 0.0001813 ± 1.9e-05 kPa; vapor or sublimation pressure ([1]; 406.15 K): 0.0002145 ± 2.3e-05 kPa; vapor or sublimation pressure ([1]; 409.15 K): 0.000277 ± 2.9e-05 kPa; vapor or sublimation pressure ([1]; 411.15 K): 0.0003482 ± 3.7e-05 kPa
5 | Clc1ccc(NC2=NCCC3(CCCCC3)S2)cc1 [N-(4-chlorophenyl)-1-thia-3-azaspiro[5.5]undec-2-en-2-amine] | – | – | – | – | 2e-05 ± 2.1e-06 | – | – | – | – | 0.0001487 ± 1.6e-05 | 162.6 ± 0.5 | 41.9 ± 1.3 | 7.69e-05 ± 8.2e-06 | 8.96e-05 ± 9.5e-06 | 0.0001171 ± 1.3e-05 | 0.0001855 ± 2e-05 | – | – | 7.05e-05 ± 7.5e-06 | 3.58e-05 ± 3.8e-06 | vapor or sublimation pressure ([1]; 370.15 K): 1.08e-05 ± 1.2e-06 kPa; vapor or sublimation pressure ([1]; 372.15 K): 1.28e-05 ± 1.4e-06 kPa; vapor or sublimation pressure ([1]; 373.15 K): 1.3e-05 ± 1.4e-06 kPa; vapor or sublimation pressure ([1]; 377.15 K): 2.79e-05 ± 3e-06 kPa; vapor or sublimation pressure ([1]; 383.15 K): 5.41e-05 ± 5.8e-06 kPa; vapor or sublimation pressure ([1]; 398.15 K): 0.0002176 ± 2.3e-05 kPa; vapor or sublimation pressure ([1]; 400.15 K): 0.0002803 ± 3e-05 kPa; vapor or sublimation pressure ([1]; 403.15 K): 0.0003898 ± 4.1e-05 kPa
6 | CCc1ccc(NC2=NCCC3(CCCCC3)S2)cc1 [N-(4-ethylphenyl)-1-thia-3-azaspiro[5.5]undec-2-en-2-amine] | – | 3.45e-05 ± 3.7e-06 | – | – | 0.0001151 ± 1.2e-05 | – | 0.000327 ± 3.5e-05 | – | 0.0004631 ± 4.9e-05 | – | 139.4 ± 0.5 | 42.8 ± 1.3 | 0.0003632 ± 3.9e-05 | – | – | – | – | – | 0.0002567 ± 2.7e-05 | 0.0001583 ± 1.7e-05 | vapor or sublimation pressure ([1]; 367.15 K): 4.16e-05 ± 4.4e-06 kPa; vapor or sublimation pressure ([1]; 370.15 K): 5.31e-05 ± 5.7e-06 kPa; vapor or sublimation pressure ([1]; 372.15 K): 7.08e-05 ± 7.5e-06 kPa; vapor or sublimation pressure ([1]; 374.15 K): 8.22e-05 ± 8.8e-06 kPa; vapor or sublimation pressure ([1]; 377.15 K): 0.0001434 ± 1.5e-05 kPa; vapor or sublimation pressure ([1]; 382.15 K): 0.0002134 ± 2.3e-05 kPa; vapor or sublimation pressure ([1]; 392.15 K): 0.000642 ± 6.8e-05 kPa; vapor or sublimation pressure ([1]; 394.15 K): 0.0007981 ± 8.5e-05 kPa
7 | Cc1ccc(NC2=NCCC3(CCCCC3)S2)cc1 [N-(4-methylphenyl)-1-thia-3-azaspiro[5.5]undec-2-en-2-amine] | 3.66e-05 ± 3.9e-06 | 4.54e-05 ± 4.8e-06 | 6.73e-05 ± 7.2e-06 | 0.0001314 ± 1.4e-05 | 0.0001366 ± 1.5e-05 | – | – | – | – | – | 128.1 ± 0.5 | 29.7 ± 1.2 | – | – | – | – | – | – | 0.0003508 ± 3.7e-05 | 0.0002336 ± 2.5e-05 | vapor or sublimation pressure ([1]; 353.15 K): 9.4e-06 ± 1e-06 kPa; vapor or sublimation pressure ([1]; 355.15 K): 1.29e-05 ± 1.4e-06 kPa; vapor or sublimation pressure ([1]; 356.15 K): 1.58e-05 ± 1.7e-06 kPa; vapor or sublimation pressure ([1]; 360.15 K): 2.24e-05 ± 2.4e-06 kPa; vapor or sublimation pressure ([1]; 363.15 K): 3.02e-05 ± 3.2e-06 kPa; vapor or sublimation pressure ([1]; 372.15 K): 9.76e-05 ± 1e-05 kPa; vapor or sublimation pressure ([1]; 377.15 K): 0.0001547 ± 1.7e-05 kPa; vapor or sublimation pressure ([1]; 378.15 K): 0.0001852 ± 2e-05 kPa
8 | c1ccc(NC2=NCCC3(CCCCC3)S2)cc1 [N-phenyl-1-thia-3-azaspiro[5.5]undec-2-en-2-amine] | 0.0001035 ± 1.1e-05 | – | 0.0001541 ± 1.6e-05 | – | – | – | – | – | – | – | 113.4 ± 0.5 | 21.6 ± 1.1 | – | – | – | – | – | – | – | – | vapor or sublimation pressure ([1]; 342.15 K): 6.9e-06 ± 8e-07 kPa; vapor or sublimation pressure ([1]; 343.15 K): 8.2e-06 ± 9e-07 kPa; vapor or sublimation pressure ([1]; 345.15 K): 1.01e-05 ± 1.1e-06 kPa; vapor or sublimation pressure ([1]; 347.15 K): 1.32e-05 ± 1.4e-06 kPa; vapor or sublimation pressure ([1]; 349.15 K): 1.47e-05 ± 1.6e-06 kPa; vapor or sublimation pressure ([1]; 350.15 K): 1.8e-05 ± 1.9e-06 kPa; vapor or sublimation pressure ([1]; 352.15 K): 2.39e-05 ± 2.6e-06 kPa; vapor or sublimation pressure ([1]; 355.15 K): 3.14e-05 ± 3.4e-06 kPa; vapor or sublimation pressure ([1]; 357.15 K): 4.42e-05 ± 4.7e-06 kPa; vapor or sublimation pressure ([1]; 360.15 K): 6.22e-05 ± 6.6e-06 kPa; vapor or sublimation pressure ([1]; 361.15 K): 6.34e-05 ± 6.8e-06 kPa; vapor or sublimation pressure ([1]; 362.15 K): 9.1e-05 ± 9.7e-06 kPa; vapor or sublimation pressure ([1]; 367.15 K): 0.0001298 ± 1.4e-05 kPa; vapor or sublimation pressure ([1]; 368.15 K): 0.0001351 ± 1.4e-05 kPa
